Measurements taken from patent US8030321B2, “Benzofuro- and benzothienopyrimidine modulators of the histamine H4 receptor” (Janssen Pharmaceutica, NV, priority 2006, dated 2011).
Counter-ions that a name gives are not always drawn.

The compounds below were run against T1, human histamine H4 receptor (Homo sapiens, UniProt Q9H3N8) (assay: Binding Assay on Recombinant Human Histamine H4 Receptor). Conditions: not given.
T1 construct: expressed in transfected cells; host or cells: SK-N-MC cells or COS7 cells, transiently transfected; cell membranes used
Protocol: Binding Assay on Recombinant Human Histamine H4 Receptor
SK-N-MC cells or COS7 cells were transiently transfected with pH4R and grown in 150 cm^2 tissue culture dishes. Cells were washed with saline solution, scraped with a cell scraper and collected by centrifugation (1000 rpm, 5 min). Cell membranes were prepared by homogenization of the cell pellet in 20 mM Tris-HCl with a polytron tissue homogenizer for 10 sec at high speed. Homogenate was centrifuged at 1000 rpm for 5 min at 4° C. […] The final pellet was resuspended in 50 mM Tris-HCl. Cell membranes were incubated with ^3H-histamine (5-70 nM) in the presence or absence of excess histamine (10,000 nM). […] Membranes were harvested by rapid filtration over Whatman GF/C filters and washed 4 times with ice-cold 50 mM Tris HCl. Filters were then dried, mixed with scintillant and counted for radioactivity. SK-N-MC or COS7 cells expressing human histamine H4 receptor were used to measure the affinity of binding of other compounds and their ability to displace ^3H-ligand binding by incubating the above-described reaction in the presence of various concentrations of inhibitor or compound to be tested.

SMILES	Ki [nM]
COc1ccc2oc3c(N4C[C@H]5CCN[C@H]5C4)nc(N)nc3c2c1 (relative stereo) [Example 114, (cis)-4-(Hexahydro-pyrrolo[3,4-b]pyrrol-5-yl)-8-methoxy-benzo[4,5]furo[3,2-d]pyrimidin-2-ylamine trifluoroacetic acid salt]	91
Nc1nc(N2CC3CCCNC3C2)c2oc3ccc(Cl)cc3c2n1 (centres unmarked) [Example 9, 8-Chloro-4-(octahydro-pyrrolo[3,4-b]pyridin-6-yl)-benzo[4,5]furo[3,2-d]pyrimidin-2-ylamine]	2.1
Nc1nc(N2C[C@@H]3C[C@H]2CN3)c2oc3ccc(Cl)cc3c2n1 [Example 11, (S,S)-8-Chloro-4-(2,5-diaza-bicyclo[2.2.1]hept-2-yl)-benzo[4,5]furo[3,2-d]pyrimidin-2-ylamine]	25
Nc1nc(N2CCN3CCCC3C2)c2oc3ccc(Br)cc3c2n1 (centres unmarked) [Example 20, 8-Bromo-4-(hexahydro-pyrrolo[1,2-a]pyrazin-2-yl)-benzo[4,5]furo[3,2-d]pyrimidin-2-ylamine trifluoroacetic acid salt]	4.7

Same assay, conditions: competition binding with 3H-histamine (5 nM), membranes of SK-N-MC or COS7 cells expressing human H4 receptor; Cheng-Prusoff, KD 5 nM; average of results obtained; read-out: Ki

SMILES	Ki [nM]
CC1CN(c2nc(N)nc3c2oc2ccc(Cl)cc23)CC(C)N1 (mixture of isomers) [Example 128, 8-Chloro-4-(3,5-dimethyl-piperazin-1-yl)-benzo[4,5]furo[3,2-d]pyrimidin-2-ylamine trifluoroacetic acid salt]	> 10000
Nc1nc(N2CC[C@@H]3CNC[C@@H]32)c2oc3ccc(Cl)cc3c2n1 (relative stereo) [Example 95, (cis)-8-Chloro-4-(hexahydro-pyrrolo[3,4-b]pyrrol-1-yl)-benzo[4,5]furo[3,2-d]pyrimidin-2-ylamine trifluoroacetic acid salt]	140
OCCNc1nc(N2C[C@H]3CCCN[C@H]3C2)c2oc3ccc(Cl)cc3c2n1 (relative stereo) [Example 117, (cis)-2-[8-Chloro-4-(octahydro-pyrrolo[3,4-b]pyridin-6-yl)-benzo[4,5]furo[3,2-d]pyrimidin-2-ylamino]-ethanol]	930
Nc1nc(N2CC3CCCNC3C2)c2oc3c(Cl)cc(Cl)cc3c2n1 (centres unmarked) [Example 2, 6,8-Dichloro-4-(octahydro-pyrrolo[3,4-b]pyridin-6-yl)-benzo[4,5]furo[3,2-d]pyrimidin-2-ylamine trifluoroacetic acid salt]	7.1
CC(C)N1CCCN(c2nc(N)nc3c2oc2ccc(Cl)cc23)CC1 [Example 3, 8-Chloro-4-(4-isopropyl-[1,4]diazepan-1-yl)-benzo[4,5]furo[3,2-d]pyrimidin-2-ylamine trifluoroacetic acid salt]	76
CN[C@@H]1CCN(c2nc(N)nc3c2oc2ccccc23)C1 [Example 6, (R)-4-(3-Methylamino-pyrrolidin-1-yl)-benzo[4,5]furo[3,2-d]pyrimidin-2-ylamine citric acid salt]	3.4
Nc1nc(N2CCCNCC2)c2oc3ccc(Cl)cc3c2n1 [Example 7, 8-Chloro-4-[1,4]diazepan-1-yl-benzo[4,5]furo[3,2-d]pyrimidin-2-ylamine trifluoroacetic acid salt]	1.1
Nc1nc(N2CCN3CCCCC3C2)c2oc3ccc(Cl)cc3c2n1 (centres unmarked) [Example 8, 8-Chloro-4-(octahydro-pyrido[1,2-a]pyrazin-2-yl)-benzo[4,5]furo[3,2-d]pyrimidin-2-ylamine]	16
Nc1nc(N2CCNCC2)c2oc3ccc(Cl)cc3c2n1 [Example 14, 8-Chloro-4-piperazin-1-yl-benzo[4,5]furo[3,2-d]pyrimidin-2-ylamine trifluoroacetic acid salt]	1.1
CN(C)C1CCN(c2nc(N)nc3c2oc2ccc(Cl)cc23)C1 (centres unmarked) [Example 15, 8-Chloro-4-(3-dimethylamino-pyrrolidin-1-yl)-benzo[4,5]furo[3,2-d]pyrimidin-2-ylamine trifluoroacetic acid salt]	6.2
CN[C@@H]1CCN(c2nc(N)nc3c2oc2ccc(Cl)cc23)C1 [Example 18, (R)-8-Chloro-4-(3-methylamino-pyrrolidin-1-yl)-benzo[4,5]furo[3,2-d]pyrimidin-2-ylamine]	0.42
CN[C@@H]1CCN(c2nc(N)nc3c2oc2ccc(Br)cc23)C1 [Example 19, (R)-8-Bromo-4-(3-methylamino-pyrrolidin-1-yl)-benzo[4,5]furo[3,2-d]pyrimidin-2-ylamine trifluoroacetic acid salt]	0.74
CN(C)[C@@H]1CCN(c2nc(N)nc3c2oc2ccccc23)C1 [Example 22, (R)-4-(3-Dimethylamino-pyrrolidin-1-yl)-benzo[4,5]furo[3,2-d]pyrimidin-2-ylamine trifluoroacetic acid salt]	12
Nc1nc(N2CCNCC2)c2oc3ccccc3c2n1 [Example 23, 4-piperazin-1-yl-benzo[4,5]furo[3,2-d]pyrimidin-2-ylamine trifluoroacetic acid salt]	21
NC[C@@H]1CCN(c2nc(N)nc3c2oc2ccc(Cl)cc23)C1 [Example 26, (S)-4-(3-Aminomethyl-pyrrolidin-1-yl)-8-chloro-benzo[4,5]furo[3,2-d]pyrimidin-2-ylamine trifluoroacetic acid salt]	90
Nc1nc(N2CC3CNCC3C2)c2oc3ccc(Cl)cc3c2n1 (centres unmarked) [Example 27, 8-Chloro-4-(hexahydro-pyrrolo[3,4-c]pyrrol-2-yl)-benzo[4,5]furo[3,2-d]pyrimidin-2-ylamine trifluoroacetic acid salt]	110
NCC1CCN(c2nc(N)nc3c2oc2ccc(Cl)cc23)C1 (centres unmarked) [Example 29, 4-(3-Aminomethyl-pyrrolidin-1-yl)-8-chloro-benzo[4,5]furo[3,2-d]pyrimidin-2-ylamine trifluoroacetic acid salt]	140

The remaining lines, values ahead:

Ki [nM]	SMILES
140	NC[C@H]1CCN(c2nc(N)nc3c2oc2ccc(Cl)cc23)C1 [Example 30, (R)-4-(3-Aminomethyl-pyrrolidin-1-yl)-8-chloro-benzo[4,5]furo[3,2-d]pyrimidin-2-ylamine trifluoroacetic acid salt]
110	Nc1nc(N2CCC[C@@H](N)C2)c2oc3ccc(Cl)cc3c2n1 [Example 28, (R)-4-(3-Amino-piperidin-1-yl)-8-chloro-benzo[4,5]furo[3,2-d]pyrimidin-2-ylamine trifluoroacetic acid salt]
31	Nc1nc(N2CCC(N)C2)c2oc3c(Cl)cc(Cl)cc3c2n1 (centres unmarked) [Example 4, 4-(3-Amino-pyrrolidin-1-yl)-6,8-dichloro-benzo[4,5]furo[3,2-d]pyrimidin-2-ylamine trifluoroacetic acid salt]
14	COc1ccc2oc3c(N4C[C@H]5CCCN[C@H]5C4)nc(N)nc3c2c1 (relative stereo) [Example 105, (cis)-8-Methoxy-4-(octahydro-pyrrolo[3,4-b]pyridin-6-yl)-benzo[4,5]furo[3,2-d]pyrimidin-2-ylamine trifluoroacetic acid salt]
9.6	Nc1nc(N2CCC[C@H](N)C2)c2oc3ccc(Cl)cc3c2n1 [Example 13, (S)-4-(3-Amino-piperidin-1-yl)-8-chloro-benzo[4,5]furo[3,2-d]pyrimidin-2-ylamine trifluoroacetic acid salt]
5.7	Nc1nc(N2CCC(N)C2)c2oc3ccccc3c2n1 (centres unmarked) [Example 21, 4-(3-Amino-pyrrolidin-1-yl)-benzo[4,5]furo[3,2-d]pyrimidin-2-ylamine trifluoroacetic acid salt]
5.5	CN(C)[C@@H]1CCN(c2nc(N)nc3c2oc2ccc(Cl)cc23)C1 [Example 24, (R)-8-Chloro-4-(3-dimethylamino-pyrrolidin-1-yl)-benzo[4,5]furo[3,2-d]pyrimidin-2-ylamine trifluoroacetic acid salt]
2.4	Nc1nc(N2CC[C@@H](N)C2)c2oc3ccc(Cl)cc3c2n1 [Example 25, (R)-4-(3-Amino-pyrrolidin-1-yl)-8-chloro-benzo[4,5]furo[3,2-d]pyrimidin-2-ylamine trifluoroacetic acid salt]
2.3	Nc1nc(N2CCC(N)C2)c2oc3ccc(Cl)cc3c2n1 (centres unmarked) [Example 16, 4-(3-Amino-pyrrolidin-1-yl)-8-chloro-benzo[4,5]furo[3,2-d]pyrimidin-2-ylamine trifluoroacetic acid salt]
2.1	CN[C@H]1CCN(c2nc(N)nc3c2oc2ccc(Cl)cc23)C1 [Example 17, (S)-8-Chloro-4-(3-methylamino-pyrrolidin-1-yl)-benzo[4,5]furo[3,2-d]pyrimidin-2-ylamine]
1.9	CN[C@@H]1CCN(c2nc(N)nc3c2oc2c(Cl)cc(Cl)cc23)C1 [Example 5, (R)-6,8-Dichloro-4-(3-methylamino-pyrrolidin-1-yl)-benzo[4,5]furo[3,2-d]pyrimidin-2-ylamine trifluoroacetic acid salt]
0.86	CNC1CCN(c2nc(N)nc3c2oc2ccc(Cl)cc23)C1 (centres unmarked) [Example 12, 8-Chloro-4-(3-methylamino-pyrrolidin-1-yl)-benzo[4,5]furo[3,2-d]pyrimidin-2-ylamine]
0.74	CN1CCCN(c2nc(N)nc3c2oc2ccc(Cl)cc23)CC1 [Example 10, 8-Chloro-4-(4-methyl-[1,4]diazepan-1-yl)-benzo[4,5]furo[3,2-d]pyrimidin-2-ylamine]
0.14	CN1CCN(c2nc(N)nc3c2oc2ccc(Cl)cc23)CC1 [Example 1, 8-Chloro-4-(4-methyl-piperazin-1-yl)-benzo[4,5]furo[3,2-d]pyrimidin-2-ylamine]
